Experimental findings from ChEMBL document CHEMBL5528076, “Development of Selective Pyrido[2,3-d]pyrimidin-7(8H)-one-Based Mammalian STE20-Like (MST3/4) Kinase Inhibitors” (J Med Chem, 2024) are described below.

pEC50, pIC50: −log10 of the molar value. The source made the active and inactive calls. No cut-off for these calls is given here.

Assay [1] addresses Serine/threonine-protein kinase PAK 1 (Homo sapiens) (UniProt Q13153). Description: Binding affinity to recombinant PAK1 (unknown origin) assessed as change in melting temperature by DSF analysis.
Assay [2] has as its target T1, Serine/threonine-protein kinase 24 (Homo sapiens, UniProt Q9Y6E0). Description: Inhibition of MST3 (unknown origin) expressed in lysed HEK293T cells using NanoGlo as substrate incubated for 20 hrs by NanoBRET assay. It is filed as cell-based.
Target sequence in this assay (Q9Y6E0 whole entry): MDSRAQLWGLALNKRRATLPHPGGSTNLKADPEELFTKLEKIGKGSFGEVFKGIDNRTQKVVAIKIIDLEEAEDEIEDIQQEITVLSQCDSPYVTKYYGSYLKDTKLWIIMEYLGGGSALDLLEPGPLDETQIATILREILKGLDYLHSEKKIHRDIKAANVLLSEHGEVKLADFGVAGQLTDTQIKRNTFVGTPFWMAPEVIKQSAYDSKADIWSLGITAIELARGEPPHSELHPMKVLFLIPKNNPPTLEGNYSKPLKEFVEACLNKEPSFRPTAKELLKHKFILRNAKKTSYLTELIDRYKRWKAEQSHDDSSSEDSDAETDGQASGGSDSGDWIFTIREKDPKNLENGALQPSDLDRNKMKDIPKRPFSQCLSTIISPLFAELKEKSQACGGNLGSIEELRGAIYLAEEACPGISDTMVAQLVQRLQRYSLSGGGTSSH
The target in assay [3] is T2, Serine/threonine-protein kinase 3 (Homo sapiens, UniProt Q13188).
T2 sequence (Q13188 whole entry): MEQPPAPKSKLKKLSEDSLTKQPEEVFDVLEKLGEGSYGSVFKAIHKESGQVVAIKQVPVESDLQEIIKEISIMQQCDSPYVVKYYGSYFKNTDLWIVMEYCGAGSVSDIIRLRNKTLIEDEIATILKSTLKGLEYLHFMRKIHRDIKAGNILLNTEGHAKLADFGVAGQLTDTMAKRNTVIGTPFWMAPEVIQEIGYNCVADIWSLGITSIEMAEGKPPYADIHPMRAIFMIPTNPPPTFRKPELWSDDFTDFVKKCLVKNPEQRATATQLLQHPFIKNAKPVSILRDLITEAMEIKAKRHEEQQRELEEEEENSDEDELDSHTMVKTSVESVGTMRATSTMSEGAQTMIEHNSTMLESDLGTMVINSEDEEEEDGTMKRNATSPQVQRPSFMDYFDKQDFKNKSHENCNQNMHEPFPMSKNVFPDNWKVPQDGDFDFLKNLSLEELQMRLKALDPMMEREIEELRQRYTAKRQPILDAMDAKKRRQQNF
Description: Inhibition of MST2 (unknown origin) expressed in HEK293T cells using NanoGlo as substrate incubated for 20 hrs by NanoBRET assay. The format is cell-based.

The target in assay [4] is T3, Serine/threonine-protein kinase 4 (Homo sapiens, UniProt Q13043).
T3 sequence (Q13043 whole entry): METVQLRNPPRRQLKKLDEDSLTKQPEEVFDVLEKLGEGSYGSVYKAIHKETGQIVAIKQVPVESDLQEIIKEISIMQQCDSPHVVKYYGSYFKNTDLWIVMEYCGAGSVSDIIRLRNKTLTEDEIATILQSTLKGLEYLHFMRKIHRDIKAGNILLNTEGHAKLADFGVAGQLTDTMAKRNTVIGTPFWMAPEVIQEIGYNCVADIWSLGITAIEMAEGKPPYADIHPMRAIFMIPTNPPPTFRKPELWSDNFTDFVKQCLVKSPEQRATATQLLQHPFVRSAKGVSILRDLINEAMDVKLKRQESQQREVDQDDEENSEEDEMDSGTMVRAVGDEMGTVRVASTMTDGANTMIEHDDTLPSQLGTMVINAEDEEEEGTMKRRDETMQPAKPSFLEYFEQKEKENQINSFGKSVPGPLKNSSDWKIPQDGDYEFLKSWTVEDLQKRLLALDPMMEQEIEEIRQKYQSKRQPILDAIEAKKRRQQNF
Description: Inhibition of MST1 (unknown origin) expressed in HEK293T cells using NanoGlo as substrate incubated for 20 hrs by NanoBRET assay. The format is cell-based.

In assay [5] the target is T1, Serine/threonine-protein kinase 24. As to the kind of experiment: Inhibition of MST3 (unknown origin) expressed in intact HEK293T cells using NanoGlo as substrate incubated for 20 hrs by NanoBRET assay. The format is cell-based.
Target sequence in this assay (Q9Y6E0 whole entry): as the sequence (Q9Y6E0 whole entry) above
In assay [6] the target is T4, Serine/threonine-protein kinase 3 (Homo sapiens) (UniProt Q13188).
T4 sequence (whole entry): T2 sequence (Q13188 whole entry)
As to the kind of experiment: Binding affinity to recombinant MST2 (unknown origin) assessed as change in melting temperature by DSF analysis.

In assay [7] the test system is HCT-116. As to the kind of experiment: Induction of apoptosis in human HCT-116 cells assessed as increase in fluorescence intensity at 10 uM incubated for 24 hrs by Hoechst33342 staining based analysis. It is filed as functional, cell-based.
In assay [8] the target is T5, Serine/threonine-protein kinase 4 (Homo sapiens) (UniProt Q13043).
T5 sequence (whole entry): T3 sequence (Q13043 whole entry)
Description: Binding affinity to recombinant MST1 (unknown origin) assessed as change in melting temperature by DSF analysis.

Assay [9] deals with Serine/threonine-protein kinase SIK2 (Homo sapiens, UniProt Q9H0K1). Description: Inhibition of SIK2 (unknown origin) expressed in HEK293T cells using NanoGlo as substrate incubated for 20 hrs by NanoBRET assay. It is filed as cell-based.
Chain of Serine/threonine-protein kinase SIK2 (Q9H0K1 whole entry): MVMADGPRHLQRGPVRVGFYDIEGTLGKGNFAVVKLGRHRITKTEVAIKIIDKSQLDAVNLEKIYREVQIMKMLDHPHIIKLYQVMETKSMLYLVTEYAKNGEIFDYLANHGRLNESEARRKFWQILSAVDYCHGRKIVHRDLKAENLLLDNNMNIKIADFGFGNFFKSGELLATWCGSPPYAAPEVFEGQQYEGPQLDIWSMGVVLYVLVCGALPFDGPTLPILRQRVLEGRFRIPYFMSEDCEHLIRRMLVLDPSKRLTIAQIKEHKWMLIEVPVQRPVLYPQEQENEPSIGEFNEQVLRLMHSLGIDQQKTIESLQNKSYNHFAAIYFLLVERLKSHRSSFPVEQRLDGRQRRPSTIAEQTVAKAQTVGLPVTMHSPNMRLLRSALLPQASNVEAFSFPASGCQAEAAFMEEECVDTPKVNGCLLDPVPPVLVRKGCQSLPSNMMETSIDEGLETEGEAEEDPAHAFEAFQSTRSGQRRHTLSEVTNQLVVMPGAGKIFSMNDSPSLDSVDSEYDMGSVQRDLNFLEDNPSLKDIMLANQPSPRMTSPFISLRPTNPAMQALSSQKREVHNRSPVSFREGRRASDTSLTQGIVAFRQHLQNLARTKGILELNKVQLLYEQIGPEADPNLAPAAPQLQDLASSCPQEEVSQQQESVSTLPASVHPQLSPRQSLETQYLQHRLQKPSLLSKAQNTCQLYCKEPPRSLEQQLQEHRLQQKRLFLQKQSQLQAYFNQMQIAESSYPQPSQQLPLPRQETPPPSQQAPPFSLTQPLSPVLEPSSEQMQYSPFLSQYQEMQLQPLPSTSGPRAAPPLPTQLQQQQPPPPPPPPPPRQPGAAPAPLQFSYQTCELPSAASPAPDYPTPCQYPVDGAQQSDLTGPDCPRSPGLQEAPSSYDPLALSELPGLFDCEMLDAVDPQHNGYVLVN
In assay [10] the target is T6, Serine/threonine-protein kinase 26 (Homo sapiens, UniProt Q9P289). Description: Inhibition of MST4 (unknown origin) expressed in HEK293T cells using NanoGlo as substrate incubated for 20 hrs by NanoBRET assay. The format is cell-based.
Target sequence in this assay (Q9P289 whole entry): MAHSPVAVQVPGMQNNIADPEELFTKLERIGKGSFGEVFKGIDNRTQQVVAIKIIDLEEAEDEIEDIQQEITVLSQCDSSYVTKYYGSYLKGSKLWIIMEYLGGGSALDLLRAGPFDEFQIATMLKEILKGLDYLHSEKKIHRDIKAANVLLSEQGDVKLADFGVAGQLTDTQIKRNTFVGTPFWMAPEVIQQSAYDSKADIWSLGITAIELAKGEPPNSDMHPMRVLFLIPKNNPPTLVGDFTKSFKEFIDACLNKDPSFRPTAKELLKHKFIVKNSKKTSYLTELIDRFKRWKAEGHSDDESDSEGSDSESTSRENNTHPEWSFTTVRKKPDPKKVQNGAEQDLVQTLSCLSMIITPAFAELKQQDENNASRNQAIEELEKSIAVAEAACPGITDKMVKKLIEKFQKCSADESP
The target in assay [11] is T1, Serine/threonine-protein kinase 24. As to the kind of experiment: Binding affinity to recombinant MST3 (unknown origin) assessed as change in melting temperature by DSF analysis.
Target sequence in this assay (Q9Y6E0 whole entry, looked up): as the sequence (Q9Y6E0 whole entry) above
The target of assay [12] is T6, Serine/threonine-protein kinase 26. Description: Binding affinity to recombinant MST4 (unknown origin) assessed as change in melting temperature by DSF analysis.
Target sequence in this assay (Q9P289 2-416 limits assumed): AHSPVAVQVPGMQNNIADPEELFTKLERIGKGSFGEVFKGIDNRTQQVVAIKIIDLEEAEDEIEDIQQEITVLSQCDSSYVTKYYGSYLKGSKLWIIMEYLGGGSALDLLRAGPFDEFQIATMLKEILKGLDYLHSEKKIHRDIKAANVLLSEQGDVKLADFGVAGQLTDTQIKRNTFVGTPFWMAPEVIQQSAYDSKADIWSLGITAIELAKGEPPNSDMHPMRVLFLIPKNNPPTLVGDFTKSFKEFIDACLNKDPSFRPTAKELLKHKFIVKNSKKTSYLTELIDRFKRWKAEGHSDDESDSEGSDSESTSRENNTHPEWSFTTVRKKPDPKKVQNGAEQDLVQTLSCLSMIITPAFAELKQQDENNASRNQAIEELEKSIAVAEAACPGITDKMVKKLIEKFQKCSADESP
Assay [13] deals with HCT-116. As to the kind of experiment: Antiproliferative activity against human HCT-116 cells assessed as reduction in cell viability at 10 uM incubated for 6 to 72 hrs by Hoechst33342 staining based analysis. The format is functional. The note with it: time 6-72 hrs.
In assay [14] the test system is HCT-116. Description: Antiproliferative activity against human HCT-116 cells assessed as reduction in cell viability at 10 uM incubated for 48 hrs by Hoechst33342 staining based analysis. It is filed as functional.
For assay [15], the system named is HCT-116. Description: Induction of apoptosis in human HCT-116 cells assessed as effect on cell count at 1 uM incubated for 72 hrs by Hoechst33342 staining based analysis. It is filed as functional.
For assay [16], the system named is HCT-116. As to the kind of experiment: Induction of cell cycle arrest in human HCT-116 cells assessed as accumulation of cells at G1 phase at 10 uM incubated for 72 hrs by FUCCI based analysis. The format is functional.
In assay [17] the target is T1, Serine/threonine-protein kinase 24. As to the kind of experiment: Inhibition of MST3 (unknown origin) expressed in HEK293T cells using NanoGlo as substrate incubated for 20 hrs by NanoBRET assay. The format is cell-based.
Target sequence in this assay (Q9Y6E0 whole entry): as the sequence (Q9Y6E0 whole entry) above
Assay [18] concerns HCT-116. Description: Induction of apoptosis in human HCT-116 cells assessed as effect on cell count at 10 uM incubated for 72 hrs by Hoechst33342 staining based analysis. The format is functional.
The target of assay [19] is T6, Serine/threonine-protein kinase 26. As to the kind of experiment: Inhibition of MST4 (unknown origin).
Target sequence in this assay (Q9P289 whole entry): as the sequence (Q9P289 whole entry) above
The target in assay [20] is T1, Serine/threonine-protein kinase 24. As to the kind of experiment: Inhibition of MST3 (unknown origin).
Target sequence in this assay (Q9Y6E0 whole entry): as the sequence (Q9Y6E0 whole entry) above

Chain of Serine/threonine-protein kinase PAK 1 (Homo sapiens) (Q13153 whole entry): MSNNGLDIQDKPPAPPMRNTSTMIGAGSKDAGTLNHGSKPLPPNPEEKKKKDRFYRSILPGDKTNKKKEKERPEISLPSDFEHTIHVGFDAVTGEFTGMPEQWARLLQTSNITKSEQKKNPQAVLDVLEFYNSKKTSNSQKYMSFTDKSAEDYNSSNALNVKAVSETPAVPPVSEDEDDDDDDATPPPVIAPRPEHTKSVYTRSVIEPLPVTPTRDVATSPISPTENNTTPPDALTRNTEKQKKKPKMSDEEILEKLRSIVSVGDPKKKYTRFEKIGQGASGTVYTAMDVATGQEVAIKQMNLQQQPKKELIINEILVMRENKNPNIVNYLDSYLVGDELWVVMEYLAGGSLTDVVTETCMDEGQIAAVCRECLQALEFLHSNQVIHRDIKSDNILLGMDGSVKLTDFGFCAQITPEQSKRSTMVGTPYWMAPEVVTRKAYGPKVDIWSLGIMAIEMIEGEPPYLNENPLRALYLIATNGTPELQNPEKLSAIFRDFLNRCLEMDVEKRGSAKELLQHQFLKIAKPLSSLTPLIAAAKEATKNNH

Consider `Cc1cccc(-c2ccc(-c3cc4cnc(Nc5ccc(CCCO)cc5)nc4n(CCCCN)c3=O)c(Cl)c2)n1`, for which the ΔTm came out at 9.1 °C in assay [1]; 13.7 °C in assay [6]; 8.7 °C in assay [8]; 16.7 °C in [11]; 15.3 °C in [12]. For the same compound, the pEC50 in [2] is 7.70; in [3] it was 6.60; in assay [4], 6.60; in assay [5] it was 7.70; in assay [9] it was 7.31; in assay [10], 7.32. In the assay with HCT-116 [7], the result was Active.
For the compound `CC(=O)NC1CCN(c2ncnc3[nH]cc(-c4cccc(Cl)c4)c23)CC1`, the result with HCT-116 [13] was inactive.
Regarding `Cc1cccc(-c2ccc(-c3cc4cnc(NCCCN5CCCC5=O)nc4n(CCCCN)c3=O)c(Cl)c2)n1`, the Activity in the assay on HCT-116 [14] is recorded as 30%. The ΔTm stood at 3.6 °C in assay [1]; 2.2 °C in [6]; 1.1 °C in assay [8]; 10.6 °C in [11]; 7.5 °C in assay [12]. Also, the outcome in the assay with HCT-116 [15] and in the assay on HCT-116 [16] was Active. Further, the pEC50 was 7.25 in [2]; 4.77 in assay [3]; 4.82 in assay [4]; 6.75 in assay [5]; 5.89 in assay [9]; 5.96 in [10]. Further, the outcome with HCT-116 [13] was inactive.
For `Cc1cccc(-c2ccc(-c3cc4cnc(NCCCN5CCNCC5)nc4n(CCCCN)c3=O)c(Cl)c2)n1`, the ΔTm in [1] was found to be 5 °C; in assay [6] it was 15.8 °C; in assay [8] it was 3.1 °C; in [11], 13 °C; in assay [12], 8.9 °C. The pEC50 is 7.48 in assay [2]; under 4.30 in assay [3]; under 4.30 in assay [4]; 5.23 in assay [9]; 5.55 in [10].
Take `CNC(=O)c1nn(C)c2c1C(C)(C)Cc1cnc(Nc3ccc(N4CCN(C)CC4)cc3)nc1-2`: the result in the assay on HCT-116 [16] was Active.
As to `CNc1ncc2cc(-c3ccc(-c4cccc(C)n4)cc3Cl)c(=O)n(CCCCN)c2n1`, the ΔTm in assay [1] worked out at 6.5 °C; in assay [6], 7.9 °C; in [8], 5.6 °C; in assay [11] it was 11.7 °C; in [12], 11.4 °C. The pEC50 in assay [17] is 7.38; in assay [2], 7.38; in assay [3] it was 5.59; in assay [4], 5.39; in assay [5] it was 6.66; in assay [9], 7.00. The pEC50 in [10] is 6.34. The outcome with HCT-116 [18] and in the assay with HCT-116 [7] was Active. Also, in the assay on HCT-116 [13], the outcome was inactive.
As for `Cc1cccc(-c2ccc(-c3cc4cnc(NCCCN5CCOCC5)nc4n(CCCCN)c3=O)c(Cl)c2)n1`, the ΔTm was 4.1 °C in assay [1]; 5.9 °C in [6]; 3.6 °C in assay [8]; 11.6 °C in assay [11]; 10.6 °C in [12]. Further, the pEC50 in assay [2] is 7.57; in assay [3], 4.99; in assay [4], 5.28; in assay [5], 7.26; in assay [9], 6.29; in [10], 6.94. The result with HCT-116 [18] and in the assay with HCT-116 [7] was Active. Also, the outcome with HCT-116 [13] was inactive.
On to `COc1cc(N2CCOCC2)ccc1Nc1ncc2cc(-c3ccc(-c4cccc(C)n4)cc3Cl)c(=O)n(CCCCN)c2n1`, for which the ΔTm in [1] stood at 5 °C; in [6], 7.5 °C; in assay [8], 4.6 °C; in assay [11], 11 °C; in [12], 9.2 °C. Besides, the pEC50 was 6.94 in assay [2]; 5.51 in [3]; 5.68 in assay [4]; 7.07 in assay [9]; 5.92 in assay [10].
`Cc1cccc(-c2ccc(-c3cc4cnc(NCCCc5ccc(N)cc5)nc4n(CCCCN)c3=O)c(Cl)c2)n1`: the ΔTm in [1] was determined as 6.8 °C; in assay [6] it was 7.2 °C; in [8], 4.9 °C; in assay [11], 12.2 °C; in [12] it was 9.7 °C. Besides, the pEC50 in assay [2] was 7.24; in [3], 5.44; in assay [4] it was 5.47; in [9], 6.29; in assay [10], 6.17.
Turning to `COc1cc(N2CCN(C)CC2)ccc1Nc1ncc2cc(-c3ccc(-c4cccc(C)n4)cc3Cl)c(=O)n(CCCCN)c2n1`, the ΔTm in assay [1] amounted to 8.8 °C; in [6] it was 7.4 °C; in assay [8], 4 °C; in [11], 13.5 °C; in assay [12] it was 6.7 °C. Besides, the pEC50 in assay [2] was 6.56; in assay [3] it was 4.77; in assay [4], under 4.30; in assay [9] it was 6.82; in assay [10] it was 4.42.
As to `CCS(=O)(=O)Nc1ccc2c(c1)/C(=C(/Nc1ccc(CN3CCCCC3)cc1)c1ccccc1)C(=O)N2` [HESPERADIN], the pIC50 in [19] was 8.22; in assay [20], 8.00.
Consider `Cc1cccc(-c2ccc(-c3cc4cnc(Nc5ccc(O)cc5)nc4n(CCCCN)c3=O)c(Cl)c2)n1`, for which the ΔTm in assay [1] is 9.2 °C; in assay [6] it was 13.7 °C; in [8], 8 °C; in assay [11], 17.1 °C; in [12], 15 °C. Besides, the pEC50 is 7.64 in assay [2]; 6.43 in [3]; 6.38 in assay [4]; 7.21 in assay [9]; 7.36 in assay [10].
For `COc1ccc(O)c(Nc2ncc3cc(-c4ccc(-c5cccc(C)n5)cc4Cl)c(=O)n(CCCCN)c3n2)c1`, the ΔTm in assay [1] was found to be 4.5 °C; in assay [6], 5.4 °C; in [8], 3.8 °C; in [11], 11 °C; in [12] it was 8.3 °C. Besides, the pEC50 is 6.79 in [2]; 5.51 in assay [3]; 5.48 in [4]; 6.27 in assay [9]; 6.10 in [10].
Consider `CCOc1cc2ncc(C#N)c(Nc3ccc(OCc4ccccn4)c(Cl)c3)c2cc1NC(=O)/C=C/CN(C)C` [NERATINIB], for which the pIC50 in assay [19] and in assay [20] was 8.15 throughout.
Turning to `Cc1cccc(-c2ccc(-c3cc4cnc(Nc5ccc(C)c(O)c5)nc4n(CCCCN)c3=O)c(Cl)c2)n1`, the ΔTm in assay [1] worked out at 9.1 °C; in assay [6], 13.2 °C; in [8], 8.1 °C; in assay [11] it was 17.5 °C; in assay [12] it was 15.9 °C. Also, the pEC50 was 7.47 in assay [2]; 6.27 in assay [3]; 6.28 in assay [4]; 7.43 in [9]; 7.22 in assay [10].
